Reference: US12077503B2, “Substituted cyclic amides and their use as herbicides” (FMC CORPORATION, priority 2015, dated 2024)

Tests used:
Assay type in all cases: in vivo
Kochia (Kochia scoparia) [1] = experiment: Test A preemergence; conditions: Bassia scoparia, pre-emergence, 240 h, read-out: Plant response rating, Kochia; for pest or weed control at 125 g/ha: 125 g ai/ha, preemergence, visual rating after approx. 10 d, 0 to 100 scale where 0 is no effect and 100 is complete control; for pest or weed control at 31 g/ha: Preemergence, 31 g ai/ha, 0 to 100 scale (0 no effect, 100 complete control)
How it was run: (§1)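 In a loam soil and sand blend, planted seeds got a preemergence directed soil spray, and young plants at the one- to two-leaf stage, 2–10 cm high, got a postemergence application; ~10 d greenhouse hold; injury rated visually, 0 = none, 100 = complete control.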

[2] = test system: barnyardgrass (Echinochloa crus-galli); experiment: Test A preemergence; conditions: Echinochloa crus-galli, pre-emergence, 240 h, read-out: Plant response rating, Barnyardgrass; for pest or weed control at 125 g/ha: 125 g ai/ha, preemergence, visual rating after approx. 10 d, 0 to 100 scale where 0 is no effect and 100 is complete control; for pest or weed control at 31 g/ha: Preemergence, 31 g ai/ha, 0 to 100 scale (0 no effect, 100 complete control)
How it was run: as §1

[3] = test system: giant foxtail (Setaria faberii); experiment: Test A preemergence; conditions: Setaria faberi, pre-emergence, 240 h, read-out: Plant response rating, Foxtail, Giant; for pest or weed control at 125 g/ha: 125 g ai/ha, preemergence, visual rating after approx. 10 d, 0 to 100 scale where 0 is no effect and 100 is complete control; for pest or weed control at 31 g/ha: Preemergence, 31 g ai/ha, 0 to 100 scale (0 no effect, 100 complete control)
How it was run: as §1

[4] = test system: pigweed (Amaranthus retroflexus); experiment: Test A preemergence; conditions: Amaranthus retroflexus, pre-emergence, 240 h, read-out: Plant response rating, Pigweed; for pest or weed control at 125 g/ha: 125 g ai/ha, preemergence, visual rating after approx. 10 d, 0 to 100 scale where 0 is no effect and 100 is complete control; for pest or weed control at 31 g/ha: Preemergence, 31 g ai/ha, 0 to 100 scale (0 no effect, 100 complete control)
[5] = test system: ragweed (common ragweed, Ambrosia elatior); experiment: Test A preemergence; conditions: Ambrosia artemisiifolia, pre-emergence, 240 h, read-out: Plant response rating, Ragweed; for pest or weed control at 125 g/ha: 125 g ai/ha, preemergence, visual rating after approx. 10 d, 0 to 100 scale where 0 is no effect and 100 is complete control; for pest or weed control at 31 g/ha: Preemergence, 31 g ai/ha, 0 to 100 scale (0 no effect, 100 complete control)
How it was run: as §1

[6] = test system: ryegrass, Italian (Italian ryegrass, Lolium multiflorum); experiment: Test A preemergence; conditions: Lolium multiflorum, pre-emergence, 240 h, read-out: Plant response rating, Ryegrass, Italian; for pest or weed control at 125 g/ha: 125 g ai/ha, preemergence, visual rating after approx. 10 d, 0 to 100 scale where 0 is no effect and 100 is complete control; for pest or weed control at 31 g/ha: Preemergence, 31 g ai/ha, 0 to 100 scale (0 no effect, 100 complete control)
How it was run: as §1

[7] = test system: Galium (catchweed bedstraw, Galium aparine); experiment: Test A postemergence; conditions: Galium, post-emergence, 240 h; for pest or weed control at 125 g/ha: 125 g ai/ha, postemergence, visual injury rating after approximately 10 d, read-out: Galium plant response rating (0 to 100 scale, 0 no effect, 100 complete control); for pest or weed control at 31 g/ha: Postemergence, 31 g ai/ha, visual injury after approx. 10 d, 0 to 100 scale, 0 no effect, 100 complete control, read-out: Plant response rating, Galium
How it was run: as §1

Kochia (Kochia scoparia) [8] = experiment: Test A postemergence; conditions: Bassia scoparia, post-emergence, 240 h; for pest or weed control at 125 g/ha: 125 g ai/ha, postemergence, visual injury rating after approximately 10 d, read-out: Kochia plant response rating (0 to 100 scale, 0 no effect, 100 complete control); for pest or weed control at 31 g/ha: Postemergence, 31 g ai/ha, visual injury after approx. 10 d, 0 to 100 scale, 0 no effect, 100 complete control, read-out: Plant response rating, Kochia
How it was run: as §1

[9] = test system: barnyardgrass (Echinochloa crus-galli); experiment: Test A postemergence; conditions: Echinochloa crus-galli, post-emergence, 240 h; for pest or weed control at 125 g/ha: 125 g ai/ha, postemergence, visual injury rating after approximately 10 d, read-out: Barnyardgrass plant response rating (0 to 100 scale, 0 no effect, 100 complete control); for pest or weed control at 31 g/ha: Postemergence, 31 g ai/ha, visual injury after approx. 10 d, 0 to 100 scale, 0 no effect, 100 complete control, read-out: Plant response rating, Barnyardgrass
How it was run: as §1

[10] = test system: blackgrass (Alopecurus myosuroides); experiment: Test A postemergence; conditions: Alopecurus myosuroides, post-emergence, 240 h; for pest or weed control at 125 g/ha: 125 g ai/ha, postemergence, visual injury rating after approximately 10 d, read-out: Blackgrass plant response rating (0 to 100 scale, 0 no effect, 100 complete control); for pest or weed control at 31 g/ha: Postemergence, 31 g ai/ha, visual injury after approx. 10 d, 0 to 100 scale, 0 no effect, 100 complete control, read-out: Plant response rating, Blackgrass
How it was run: as §1

corn (Zea mays) = experiment: Test A postemergence; conditions: Zea mays, post-emergence, 240 h; for plant injury at 125 g/ha: 125 g ai/ha, postemergence, visual injury rating after approximately 10 d, read-out: Corn plant response rating (0 to 100 scale, 0 no effect, 100 complete control); for Corn plant response rating (crop injury, 0 = no effect, 100 = complete kill) at 31 g/ha: Postemergence, 31 g ai/ha, visual injury after approx. 10 d, 0 to 100 scale, 100 complete control
How it was run: as §1

[11] = test system: giant foxtail (Setaria faberii); experiment: Test A postemergence; conditions: Setaria faberi, post-emergence, 240 h; for pest or weed control at 125 g/ha: 125 g ai/ha, postemergence, visual injury rating after approximately 10 d, read-out: Foxtail, Giant plant response rating (0 to 100 scale, 0 no effect, 100 complete control); for pest or weed control at 31 g/ha: Postemergence, 31 g ai/ha, visual injury after approx. 10 d, 0 to 100 scale, 0 no effect, 100 complete control, read-out: Plant response rating, Foxtail, Giant
How it was run: as §1

[12] = test system: pigweed (Amaranthus retroflexus); experiment: Test A postemergence; conditions: Amaranthus retroflexus, post-emergence, 240 h; for pest or weed control at 125 g/ha: 125 g ai/ha, postemergence, visual injury rating after approximately 10 d, read-out: Pigweed plant response rating (0 to 100 scale, 0 no effect, 100 complete control); for pest or weed control at 31 g/ha: Postemergence, 31 g ai/ha, visual injury after approx. 10 d, 0 to 100 scale, 0 no effect, 100 complete control, read-out: Plant response rating, Pigweed
How it was run: as §1

[13] = test system: ragweed (common ragweed, Ambrosia elatior); experiment: Test A postemergence; conditions: Ambrosia artemisiifolia, post-emergence, 240 h; for pest or weed control at 125 g/ha: 125 g ai/ha, postemergence, visual injury rating after approximately 10 d, read-out: Ragweed plant response rating (0 to 100 scale, 0 no effect, 100 complete control); for pest or weed control at 31 g/ha: Postemergence, 31 g ai/ha, visual injury after approx. 10 d, 0 to 100 scale, 0 no effect, 100 complete control, read-out: Plant response rating, Ragweed
How it was run: as §1

[14] = test system: ryegrass, Italian (Italian ryegrass, Lolium multiflorum); experiment: Test A postemergence; conditions: Lolium multiflorum, post-emergence, 240 h; for pest or weed control at 125 g/ha: 125 g ai/ha, postemergence, visual injury rating after approximately 10 d, read-out: Ryegrass, Italian plant response rating (0 to 100 scale, 0 no effect, 100 complete control); for pest or weed control at 31 g/ha: Postemergence, 31 g ai/ha, visual injury after approx. 10 d, 0 to 100 scale, 0 no effect, 100 complete control, read-out: Plant response rating, Ryegrass, Italian
How it was run: as §1

[15] = test system: wheat (Triticum aestivum); experiment: Test A postemergence; conditions: Triticum aestivum, post-emergence, 240 h; for plant injury at 125 g/ha: 125 g ai/ha, postemergence, visual injury rating after approximately 10 d, read-out: Wheat plant response rating (0 to 100 scale, 0 no effect, 100 complete control); for plant injury at 31 g/ha: Postemergence, 31 g ai/ha, visual injury after approx. 10 d, 0 to 100 scale, 0 no effect, 100 complete control, read-out: Plant response rating, Wheat
How it was run: as §1

O=C(Nc1cccc(F)c1F)[C@H]1C(=O)N(O)CC[C@@H]1c1ccc(F)cc1 [Compound 805]
0%: pest or weed control at 125 g/ha (Kochia (Kochia scoparia) [1]) | pest or weed control at 31 g/ha (Kochia (Kochia scoparia) [1]) | pest or weed control at 125 g/ha [2] | pest or weed control at 31 g/ha [2] | pest or weed control at 125 g/ha [3] | pest or weed control at 31 g/ha [3] | pest or weed control at 125 g/ha [4] | pest or weed control at 31 g/ha [4] | pest or weed control at 125 g/ha [5] | pest or weed control at 31 g/ha [5] | pest or weed control at 125 g/ha [6] | pest or weed control at 31 g/ha [6] | pest or weed control at 125 g/ha [7] | pest or weed control at 31 g/ha [7] | pest or weed control at 125 g/ha (Kochia (Kochia scoparia) [8]) | pest or weed control at 31 g/ha (Kochia (Kochia scoparia) [8]) | pest or weed control at 125 g/ha [9] | pest or weed control at 31 g/ha [9] | pest or weed control at 125 g/ha [10] | pest or weed control at 31 g/ha [10] | plant injury at 125 g/ha (corn (Zea mays)) | Corn plant response rating (crop injury, 0 = no effect, 100 = complete kill) at 31 g/ha (corn (Zea mays)) | pest or weed control at 125 g/ha [11] | pest or weed control at 31 g/ha [11] | pest or weed control at 125 g/ha [12] | pest or weed control at 31 g/ha [12] | pest or weed control at 125 g/ha [13] | pest or weed control at 31 g/ha [13] | pest or weed control at 125 g/ha [14] | pest or weed control at 31 g/ha [14] | plant injury at 125 g/ha [15] | plant injury at 31 g/ha [15]

CSc1ccccc1NC(=O)[C@H]1C(=O)N(C)CC[C@@H]1c1ccc2c(c1)OC(F)(F)O2 [Compound 814]
0%: pest or weed control at 125 g/ha (Kochia (Kochia scoparia) [1]) | pest or weed control at 31 g/ha (Kochia (Kochia scoparia) [1]) | pest or weed control at 125 g/ha [2] | pest or weed control at 31 g/ha [2] | pest or weed control at 125 g/ha [3] | pest or weed control at 31 g/ha [3] | pest or weed control at 125 g/ha [4] | pest or weed control at 31 g/ha [4] | pest or weed control at 125 g/ha [5] | pest or weed control at 31 g/ha [5] | pest or weed control at 125 g/ha [6] | pest or weed control at 31 g/ha [6] | pest or weed control at 125 g/ha [7] | pest or weed control at 31 g/ha [7] | pest or weed control at 125 g/ha (Kochia (Kochia scoparia) [8]) | pest or weed control at 31 g/ha (Kochia (Kochia scoparia) [8]) | pest or weed control at 125 g/ha [9] | pest or weed control at 31 g/ha [9] | pest or weed control at 125 g/ha [10] | pest or weed control at 31 g/ha [10] | plant injury at 125 g/ha (corn (Zea mays)) | Corn plant response rating (crop injury, 0 = no effect, 100 = complete kill) at 31 g/ha (corn (Zea mays)) | pest or weed control at 125 g/ha [11] | pest or weed control at 31 g/ha [11] | pest or weed control at 125 g/ha [12] | pest or weed control at 31 g/ha [12] | pest or weed control at 125 g/ha [13] | pest or weed control at 31 g/ha [13] | pest or weed control at 125 g/ha [14] | pest or weed control at 31 g/ha [14] | plant injury at 125 g/ha [15] | plant injury at 31 g/ha [15]
